Patent publication US9480679B2, “Methods for treating malaria, tuberculosis and MAC diseases” (priority 2009, dated 2016)
In brackets after ≈: the same amount, converted by molar mass. Like-named read-outs stand apart in the source and are kept apart here.

What was measured:
P. berghei = test: Murine P. berghei model, oral 1x or 4x 100 mg/kg; format: in vivo; details: for Parasitized RBC in one drop of blood (made by microscope): individual animals
Method: EXAMPLE. CEM-101 activity in infected mice.
EXAMPLE. CEM-101 was tested in the murine P. berghei model as described by Vennerstrom et al. Nature 430(7002):900-904 (2004), the disclosure of which is incorporated herein by reference.

P. falciparum NF54 = test: In vitro P. falciparum 72 hour assay (48+24); format: cell-based; details: Plasmodium falciparum, NF54
Method: EXAMPLE. In vitro and in vivo activity against different species of Plasmodium parasites. CEM-101 was tested against intra-erythrocytic forms of P. falciparum derived from asynchronous cultures of the strain […]. […] CEM-101 was followed for 120 h. CEM-101 has delayed activity when compared to other agents.
In vitro P. falciparum data for CEM-101 in the 72 h Assay (48+24)

[1] = test system: MTb growing inside macrophages; test: MTb inside infected macrophages, ATP readout; format: cell-based, M. tuberculosis; details: 1 μg/mL

## CC[C@H]1OC(=O)[C@@](C)(F)C(=O)[C@H](C)[C@@H](O[C@@H]2O[C@H](C)C[C@H](N(C)C)[C@H]2O)[C@](C)(OC)C[C@@H](C)C(=O)[C@H](C)[C@H]2N(CCCCn3cc(-c4cccc(N)c4)nn3)C(=O)O[C@]12C [CEM-101, solithromycin]
P. berghei; mice
  outcome in murine malarial infection model: curative
P. berghei; mice, 1 × 100 mg/kg oral, DMSO
  Activity (%): 80.05%
  Survival: 15.7 days
P. berghei; mice, 1 × 100 mg/kg oral, HPMC
  Activity (%): 81.45%
  Survival: 12.7 days
P. berghei; mice, 4 × 100 mg/kg oral, DMSO
  Activity (%): 99.79%
  Cure (%): 100%
P. berghei; mice, 4 × 100 mg/kg oral, DMSO, survivors sacrificed on Day 31
  Survival: 30.0 days
P. berghei; mice, 4 × 100 mg/kg oral, HPMC
  Activity (%): 99.79%
  Cure (%): 100%
P. berghei; mice, 4 × 100 mg/kg oral, HPMC, survivors sacrificed on Day 31
  Survival: 30.0 days
P. berghei; mice, 4× 100 mg/kg p.o.
  blood from treated animals parasite free or not: parasite free
P. berghei; mice, 4× 100 mg/kg p.o., DMSO
  Visual Observation (parasites in blood): neg
  Parasitized RBC in one drop of blood (made by microscope): 0
P. berghei; mice, 4× 100 mg/kg p.o., HPMC
  Visual Observation (parasites in blood): neg
  Parasitized RBC in one drop of blood (made by microscope): 0
P. berghei; mice, P. berghei strain ANKA, 4×100 mg/kg, cure = survival on Day 30 with no detectable parasites
  outcome of treatment: cure
P. berghei; murine P. berghei model (Vennerstrom et al.)
  activity compared with Artesunate in the mouse model: equivalent activity to Artesunate
P. falciparum NF54; 72 h assay (48+24), read-out: IC50 NF54 TEST 1
  IC50: 0.919 µg/mL (≈ 1.09 µM)
P. falciparum NF54; 72 h assay (48+24), read-out: IC50 NF54 TEST 2
  IC50: 1.54 µg/mL (≈ 1.82 µM)
P. falciparum NF54; 72 h assay (48+24), read-out: IC50 NF54 TEST 3
  IC50: 1.49 µg/mL (≈ 1.76 µM)
P. falciparum NF54; 72 h assay (48+24), read-out: IC50 NF54 TEST 4
  IC50: 1.26 µg/mL (≈ 1.49 µM)
P. falciparum NF54; 72 hour assay (48+24), read-out: IC50 NF54 Test 1
  IC50: 0.919 µg/mL (≈ 1.09 µM)
P. falciparum NF54; 72 hour assay (48+24), read-out: IC50 NF54 Test 2
  IC50: 1.54 µg/mL (≈ 1.82 µM)
P. falciparum NF54; 72 hour assay (48+24), read-out: IC50 NF54 Test 3
  IC50: 1.49 µg/mL (≈ 1.76 µM)
P. falciparum NF54; 72 hour assay (48+24), read-out: IC50 NF54 Test 4
  IC50: 1.26 µg/mL (≈ 1.49 µM)
[1]
  decrease in ATP of MTb released from infected treated cells: 10 fold
